Values joined by “and” are separate entries in the source; they are usually repeats but may differ in a detail not shown here. Identical values can stand only once.
Assay: mn = molality of the nth substance listed, in mol/kg
Settings: 101 kPa, Liquid; for mass density: Vibrating tube method; for speed of sound: Sing-around technique in a fixed-path interferometer

CC(C)(CO)CO [2,2-dimethyl-1,3-propanediol] + O
Settings | mass density | speed of sound
273.15 K, m1 = 0.1001 | 1000.25 kg/m3 | –
273.15 K, m1 = 0.2006 | 1000.57 kg/m3 | –
273.15 K, m1 = 0.2997 | 1000.91 kg/m3 | –
273.15 K, m1 = 0.4021 | 1001.28 kg/m3 | –
273.15 K, m1 = 0.5001 | 1001.66 kg/m3 | –
273.15 K, m1 = 0.6007 | 1002.07 kg/m3 | –
278.15 K, m1 = 0.1001 | – | 1435.8 m/s
278.15 K, m1 = 0.2006 | – | 1445.4 m/s
278.15 K, m1 = 0.2997 | – | 1454.5 m/s
278.15 K, m1 = 0.4021 | – | 1463.8 m/s
278.15 K, m1 = 0.5001 | – | 1472.5 m/s
278.15 K, m1 = 0.6007 | – | 1481.3 m/s
283.15 K, m1 = 0.1001 | 999.968 kg/m3 and 999.967 kg/m3 | 1456.2 m/s
283.15 K, m1 = 0.2006 | 1000.26 kg/m3 | 1464.9 m/s
283.15 K, m1 = 0.2997 | 1000.57 kg/m3 | 1473.3 m/s and 1473.4 m/s
283.15 K, m1 = 0.4021 | 1000.92 kg/m3 | 1481.9 m/s
283.15 K, m1 = 0.5001 | 1001.26 kg/m3 | 1489.9 m/s
283.15 K, m1 = 0.6007 | 1001.63 kg/m3 and 1001.64 kg/m3 | 1497.9 m/s and 1498 m/s
288.15 K, m1 = 0.1001 | 999.35 kg/m3 and 999.351 kg/m3 | 1474.1 m/s and 1474.2 m/s
288.15 K, m1 = 0.2006 | 999.623 kg/m3 | 1482.2 m/s
288.15 K, m1 = 0.2997 | 999.911 kg/m3 and 999.913 kg/m3 | 1490 m/s and 1489.9 m/s
288.15 K, m1 = 0.4021 | 1000.23 kg/m3 | 1497.8 m/s
288.15 K, m1 = 0.5001 | 1000.54 kg/m3 and 1000.55 kg/m3 | 1505.2 m/s
288.15 K, m1 = 0.6007 | 1000.88 kg/m3 | 1512.6 m/s
293.15 K, m1 = 0.1001 | 998.435 kg/m3 and 998.438 kg/m3 and 998.44 kg/m3 | 1489.9 m/s
293.15 K, m1 = 0.2006 | 998.688 kg/m3 and 998.69 kg/m3 and 998.693 kg/m3 | 1497.4 m/s and 1497.3 m/s
293.15 K, m1 = 0.2997 | 998.956 kg/m3 and 998.958 kg/m3 and 998.96 kg/m3 | 1504.5 m/s
293.15 K, m1 = 0.4021 | 999.245 kg/m3 and 999.25 kg/m3 and 999.252 kg/m3 | 1511.8 m/s
293.15 K, m1 = 0.5001 | 999.536 kg/m3 and 999.541 kg/m3 and 999.543 kg/m3 | 1518.5 m/s
293.15 K, m1 = 0.6007 | 999.846 kg/m3 and 999.849 kg/m3 and 999.851 kg/m3 | 1525.3 m/s
298.15 K, m1 = 0.1001 | 997.263 kg/m3 and 997.264 kg/m3 and 997.261 kg/m3 | 1503.7 m/s
298.15 K, m1 = 0.2006 | 997.499 kg/m3 | 1510.5 m/s and 1510.6 m/s
298.15 K, m1 = 0.2997 | 997.744 kg/m3 and 997.745 kg/m3 and 997.742 kg/m3 | 1517.1 m/s and 1517.2 m/s
298.15 K, m1 = 0.4021 | 998.013 kg/m3 and 998.015 kg/m3 | 1523.8 m/s and 1523.9 m/s
298.15 K, m1 = 0.5001 | 998.28 kg/m3 and 998.279 kg/m3 and 998.282 kg/m3 | 1530 m/s and 1530.1 m/s
298.15 K, m1 = 0.6007 | 998.56 kg/m3 and 998.559 kg/m3 and 998.562 kg/m3 | 1536.2 m/s and 1536.3 m/s
303.15 K, m1 = 0.1001 | 995.849 kg/m3 and 995.85 kg/m3 | 1515.6 m/s
303.15 K, m1 = 0.2006 | 996.066 kg/m3 and 996.067 kg/m3 | 1521.9 m/s
303.15 K, m1 = 0.2997 | 996.293 kg/m3 and 996.294 kg/m3 | 1528 m/s
303.15 K, m1 = 0.4021 | 996.538 kg/m3 and 996.539 kg/m3 | 1534.1 m/s
303.15 K, m1 = 0.5001 | 996.781 kg/m3 | 1539.9 m/s and 1539.8 m/s
303.15 K, m1 = 0.6007 | 997.037 kg/m3 and 997.036 kg/m3 | 1545.6 m/s and 1545.5 m/s
308.15 K, m1 = 0.1001 | 994.216 kg/m3 and 994.215 kg/m3 | 1525.8 m/s
308.15 K, m1 = 0.2006 | 994.415 kg/m3 and 994.416 kg/m3 | 1531.6 m/s and 1531.5 m/s
308.15 K, m1 = 0.2997 | 994.624 kg/m3 and 994.621 kg/m3 | 1537.2 m/s and 1537.1 m/s
308.15 K, m1 = 0.4021 | 994.845 kg/m3 and 994.847 kg/m3 | 1542.8 m/s
308.15 K, m1 = 0.5001 | 995.067 kg/m3 and 995.065 kg/m3 and 995.068 kg/m3 | 1548 m/s and 1548.1 m/s
308.15 K, m1 = 0.6007 | 995.297 kg/m3 and 995.296 kg/m3 and 995.298 kg/m3 | 1553.2 m/s and 1553.1 m/s
318.15 K, m1 = 0.1001 | 990.368 kg/m3 and 990.367 kg/m3 | 1541.5 m/s and 1541.4 m/s
318.15 K, m1 = 0.2006 | 990.531 kg/m3 and 990.532 kg/m3 and 990.533 kg/m3 | 1546.4 m/s and 1546.3 m/s
318.15 K, m1 = 0.2997 | 990.701 kg/m3 and 990.7 kg/m3 | 1551 m/s
318.15 K, m1 = 0.4021 | 990.883 kg/m3 and 990.882 kg/m3 | 1555.6 m/s and 1555.7 m/s
318.15 K, m1 = 0.5001 | 991.06 kg/m3 and 991.057 kg/m3 and 991.058 kg/m3 | 1559.9 m/s and 1560 m/s
318.15 K, m1 = 0.6007 | 991.242 kg/m3 and 991.241 kg/m3 | 1564.2 m/s and 1564.3 m/s

CCC(CO)(CO)CO [2-ethyl-2-(hydroxymethyl)-1,3-propanediol] + O
speed of sound
Settings | 278.15 K | 283.15 K | 288.15 K | 293.15 K | 298.15 K | 308.15 K | 318.15 K
m1 = 0.09974 | 1436 m/s and 1436.1 m/s | 1456.4 m/s and 1456.5 m/s | 1474.5 m/s | 1490.3 m/s | 1504.1 m/s | 1526.5 m/s and 1526.2 m/s | 1542.2 m/s and 1542 m/s
m1 = 0.1998 | 1445.7 m/s | 1465.3 m/s and 1465.4 m/s | 1482.8 m/s | 1498 m/s | 1511.3 m/s | 1532.7 m/s and 1532.4 m/s | 1547.6 m/s and 1547.4 m/s
m1 = 0.3 | 1455.1 m/s | 1474.1 m/s | 1490.9 m/s | 1505.6 m/s | 1518.3 m/s | 1538.9 m/s and 1538.5 m/s | 1552.8 m/s and 1552.7 m/s
m1 = 0.3961 | 1464 m/s | 1482.3 m/s and 1482.4 m/s | 1498.5 m/s | 1512.7 m/s | 1524.9 m/s | 1544.6 m/s and 1544.3 m/s | 1557.4 m/s and 1557.6 m/s
m1 = 0.5048 | 1473.8 m/s | 1491.4 m/s | 1507 m/s | 1520.5 m/s | 1532.2 m/s | 1550.9 m/s and 1550.5 m/s | 1562.8 m/s and 1563 m/s

From the NIST ThermoML archive (doi:10.1021/je300175w)
